According to publication PMC6220894 (Food and chemical toxicology : an international journal …, 2018):
Like-named read-outs stand apart in the source and are kept apart here.

Experiments:
[1] = tested on: Salmonella typhimurium TA 1537; experiment: Ames bacterial reverse mutation assay, plate incorporation method; assay type: cell-based
[2] = In vitro metabolism in cryopreserved hepatocytes; assay type: in vitro ADME; details: human hepatocytes; 25 µM; 4 hours
[3] = In vitro metabolism in cryopreserved hepatocytes; assay type: in vitro ADME; details: rabbit hepatocytes; 25 µM; 4 hours
[4] = Red blood cell distribution in whole blood; assay type: in vitro ADME; details: human, whole blood (pooled, EDTA)
[5] = In vitro metabolism in cryopreserved hepatocytes; assay type: in vitro ADME; details: rat hepatocytes; 25 µM; 4 hours
[6] = ref Davies et al., 2002; Zagol-Ikapitte et al., 2010a; cited from earlier work
[7] = mice; long-term (10 month) administration; ref Davies et al., 2011; cited from earlier work
[8] = tested on: Salmonella typhimurium TA 1537; experiment: Ames bacterial reverse mutation assay, pre-incubation method; assay type: cell-based
[9] = tested on: Salmonella typhimurium TA 102; experiment: as above; assay type: cell-based
[10] = tested on: Salmonella typhimurium TA 1535; assay type: cell-based; details: plate incorporation
[11] = tested on: Salmonella typhimurium TA 102; experiment: Ames bacterial reverse mutation assay, plate incorporation method; assay type: cell-based
[12] = tested on: C. elegans; details: ref Nguyen et al., 2016; cited from earlier work
[13] = +S9, 0.05 mg/plate as printed (third dose row)
[14] = −S9, 0.05 mg/plate as printed (third dose row)

With `CC(=O)O.NCc1ccccc1O` [2-HOBA, 2-Hydroxybenzylamine acetate] the “Mean plate counts (revertant colonies)” value ([1]; +S9, 0.05 mg/plate) was 6.3±0.6, the “Mean plate counts (revertant colonies)” value [1, 13] was 6.3±0.6 and the “Mean plate counts (revertant colonies)” value ([1]; +S9, 0.15 mg/plate) was 6.3±1.5. The “Mean plate counts (revertant colonies)” value ([1]; +S9, 1.5 mg/plate) was 6.0±1.0, the “Mean plate counts (revertant colonies)” value ([1]; +S9, 5 mg/plate) was 6.3±1.5 and the “Change in revertant colony counts vs negative control (mutagenicity)” value (shortened to “Change in revertant colony counts”) ([1]; +S9 and −S9, all dose levels) was “No changes in revertant colony counts were observed”. For the same compound, the “Mean plate counts (revertant colonies)” value ([1]; −S9, 0.05 mg/plate) was 5.0±1.0, the “Mean plate counts (revertant colonies)” value [1, 14] was 5.3±0.6 and the “Mean plate counts (revertant colonies)” value ([1]; −S9, 0.15 mg/plate) was 5.0±0.0. For the same compound, the “Mean plate counts (revertant colonies)” value ([1]; −S9, 1.5 mg/plate) was 5.7±1.2, the “Mean plate counts (revertant colonies)” value ([1]; −S9, 5 mg/plate) was 6.0±1.0 and the principle metabolites observed [2] was “salicylic acid (M1) and the glycoside conjugate metabolite of 2-HOBA”. The principle metabolites observed [3] was “salicylic acid (M1) and the glycoside conjugate metabolite of 2-HOBA”, the Kp at 2 h, 1 µM [4] was 1.26 ± 0.01 and the Kp at 2 h, 10 µM [4] was 1.08. The blood plasma ratio at 2 h, 1 µM [4] was 1.12 ± 0.03, the blood plasma ratio at 2 h, 10 µM [4] was 1.04 and the principle metabolites observed [5] was “salicylic acid (M1) and the glycoside conjugate metabolite of 2-HOBA”. For the same compound, the “γKA scavenging rate relative to the rate of formation of γKA protein adducts” value [6] was 980 fold, the “body weight or survival” value [7] was “did not affect body weight or survival” and the “Mean plate counts (revertant colonies)” value ([8]; +S9, 0.05 mg/plate) was 6.7±0.6. The “Mean plate counts (revertant colonies)” value ([8]; +S9, 0.15 mg/plate) was 7.3±1.2, the “Mean plate counts (revertant colonies)” value ([8]; +S9, 0.5 mg/plate) was 8.0±1.0 and the “Mean plate counts (revertant colonies)” value ([8]; +S9, 1.5 mg/plate) was 7.0±1.0. The “Mean plate counts (revertant colonies)” value ([8]; +S9, 5 mg/plate) was 6.3±1.5, the “Change in revertant colony counts” value ([8]; +S9 and −S9, all dose levels) was “No changes in revertant colony counts were observed” and the “Mean plate counts (revertant colonies)” value ([8]; −S9, 0.05 mg/plate) was 6.7±0.6. For the same compound, the “Mean plate counts (revertant colonies)” value [8, 14] was 7.0±0.0, the “Mean plate counts (revertant colonies)” value ([8]; −S9, 0.15 mg/plate) was 6.0±1.0 and the “Mean plate counts (revertant colonies)” value ([8]; −S9, 1.5 mg/plate) was 6.0±1.0. For the same compound, the “Mean plate counts (revertant colonies)” value ([8]; −S9, 5 mg/plate) was 6.3±1.2, the “Mean plate counts (revertant colonies)” value ([9]; +S9, 0.05 mg/plate) was 280.0±6.0 and the “Mean plate counts (revertant colonies)” value ([9]; +S9, 0.15 mg/plate) was 271.3±11.0. For the same compound, the “Mean plate counts (revertant colonies)” value ([9]; +S9, 0.5 mg/plate) was 256.0±7.2, the “Mean plate counts (revertant colonies)” value ([9]; +S9, 1.5 mg/plate) was 283.3±16.2 and the “Mean plate counts (revertant colonies)” value ([9]; +S9, 5 mg/plate) was 256.7±8.1. The “Change in revertant colony counts” value ([9]; +S9 and −S9, all dose levels) was “No changes in revertant colony counts were observed”, the “Mean plate counts (revertant colonies)” value ([9]; −S9, 0.05 mg/plate) was 241.3±12.1 and the “Mean plate counts (revertant colonies)” value [9, 14] was 236.0±15.6. The “Mean plate counts (revertant colonies)” value ([9]; −S9, 0.15 mg/plate) was 232.7±3.1, the “Mean plate counts (revertant colonies)” value ([9]; −S9, 1.5 mg/plate) was 250.0±12.5 and the “Mean plate counts (revertant colonies)” value ([9]; −S9, 5 mg/plate) was 250.7±14.0. The “Mean plate counts (revertant colonies)” value ([10]; +S9, 0.05 mg/plate) was 9.3±1.5, the “Mean plate counts (revertant colonies)” value [10, 13] was 10.7±0.6 and the “Mean plate counts (revertant colonies)” value ([10]; +S9, 0.15 mg/plate) was 9.0±1.0. For the same compound, the “Mean plate counts (revertant colonies)” value ([10]; +S9, 1.5 mg/plate) was 10.3±1.5, the “Mean plate counts (revertant colonies)” value ([10]; +S9, 5 mg/plate) was 10.3±1.5 and the “Change in revertant colony counts” value ([10]; +S9 and −S9, all dose levels) was “No changes in revertant colony counts were observed”. For the same compound, the “Mean plate counts (revertant colonies)” value ([10]; −S9, 0.05 mg/plate) was 10.7±0.6, the “Mean plate counts (revertant colonies)” value [10, 14] was 10.7±1.2 and the “Mean plate counts (revertant colonies)” value ([10]; −S9, 0.15 mg/plate) was 11.0±1.0. For the same compound, the “Mean plate counts (revertant colonies)” value ([10]; −S9, 1.5 mg/plate) was 10.7±1.2, the “Mean plate counts (revertant colonies)” value ([10]; −S9, 5 mg/plate) was 11.0±1.0 and the “Mean plate counts (revertant colonies)” value ([11]; +S9, 0.05 mg/plate) was 302.7±11.4. The “Mean plate counts (revertant colonies)” value [11, 13] was 323.3±61.2, the “Mean plate counts (revertant colonies)” value ([11]; +S9, 0.15 mg/plate) was 296.7±27.2 and the “Mean plate counts (revertant colonies)” value ([11]; +S9, 1.5 mg/plate) was 293.3±24.2. For the same compound, the “Mean plate counts (revertant colonies)” value ([11]; +S9, 5 mg/plate) was 282.7±19.0, the “Change in revertant colony counts” value ([11]; +S9 and −S9, all dose levels) was “No changes in revertant colony counts were observed” and the “Mean plate counts (revertant colonies)” value ([11]; −S9, 0.05 mg/plate) was 292.7±6.4. For the same compound, the “Mean plate counts (revertant colonies)” value [11, 14] was 279.3±14.2, the “Mean plate counts (revertant colonies)” value ([11]; −S9, 0.15 mg/plate) was 287.3±24.0 and the “Mean plate counts (revertant colonies)” value ([11]; −S9, 1.5 mg/plate) was 297.3±6.4. The “Mean plate counts (revertant colonies)” value ([11]; −S9, 5 mg/plate) was 328.0±63.2 and the lifespan [12] was “increased lifespan”.
